In paper PMC7391767, “Molecular mechanisms underlying menthol binding and activation of TRPM8 ion channel” (Nature Communications, 2020):
“And” between values parts separate entries of the source, which are not always exact repeats. Identical values can stand only once. “Also recorded” adds a separate entry of the source. Like-named read-outs stand apart in the source and are kept apart here.

Legend:
Type in all cases: cell-based
TRPM8 R842K = target: T1, TRPM8 R842K (Mus musculus, UniProt Q8R4D5, R842K); assay: whole-cell patch-clamp and thermodynamic mutant cycle analysis
T1 construct: expressed in transfected cells; host or cells: HEK293T
Procedure: (§1) Murine TRPM8 was used in this study. Point mutations were made by Fast Mutagenesis Kit V2 (SBS Genetech). Primers used to generate point mutations are summarized in Supplementary Table 2.
(§2) HEK293T cells purchased from Kunming Cell Bank, Kunming Institute of Zoology, Chinese Academy of Sciences (ATCC, CRL-3216) were cultured in Dulbecco’s modified Eagle’s medium supplemented with 20 mM L-glutamine and 10% fetal bovine serum. Cells were transiently transfected with cDNA constructs by Lipofectamine 3000 (Life Technologies) following the manufacturer’s protocol. Patch-clamp recordings were performed 1–2 days after transfection.
(§3) Patch-clamp recordings were performed with a HEKA EPC10 amplifier controlled by PatchMaster software (HEKA). Whole-cell recordings were performed at ±80 mV. Patch pipettes were prepared from borosilicate glass and fire-polished to resistance of ~4 MΩ. For whole-cell recording, serial resistance was compensated by 60%. For single-channel recordings, patch pipettes were fire-polished to a higher resistance of 6-to-10 MΩ and then recorded in the inside-out configuration. To maximize the chance of obtaining a patch with only one channel, single-channel recordings were performed about 8 h after transfection. A solution with 130 mM NaCl, 10 mM glucose, 0.2 mM EDTA, and 3 mM HEPES (pH 7.2) was used in both bath and pipette for either whole-cell or single-channel recordings. Membrane potential was clamped at +80 mV for single-channel recordings. Current was sampled at 10 kHz and filtered at 2.9 kHz. All recordings were performed at room temperature (22 °C) with the maximum variation of 1 °C.
(§4) Ligands such as menthol and its analogs were perfused to membrane patch by a gravity-driven system (RSC-200, Bio-Logic). Bath and ligand solution were delivered through separate tubes to minimize the mixing of solutions. Patch pipette was placed in front of the perfusion tube outlet.
(§5) Data from whole-cell recordings were analyzed in Igor Pro version 6.1 (WaveMatrix). EC50 values were derived from fitting a Hill equation to the concentration–response relationship. […] To distinguish these possibilities, dissociation constant (Kd) for ligand binding was estimated assuming the following gating scheme:1 C0↔KdC1↔LO, where L is the equilibrium constant for the final closed-to-open transition.
(§6) To perform thermodynamic cycle analysis, Kd values of four channel-ligand combinations (WT channel, menthol: Kd _1; Mutant channel, menthol: Kd _2; WT channel, menthol analog: Kd _3; Mutant channel, menthol analog: Kd _4) were determined separately. The strength of coupling was determined by the coupling energy (kT multiplied by LnΩ, where k is the Boltzmann constant and T is temperature in Kelvin). LnΩ was calculated by Eq. (2) as[51]2 LnΩ=LnKd_1⋅Kd_4/Kd_2⋅Kd_3.

TRPM8 Y1005F = target: T2, TRPM8 Y1005F (Mus musculus, UniProt Q8R4D5, Y1005F); assay: as above; settings: patch-clamp, peer review file
T2 construct: expressed in transfected cells; host or cells: HEK293T
Procedure: as §1, §2, §3, §4, §5, §6

TRPM8 I846V = target: T3, TRPM8 I846V (Mus musculus, UniProt Q8R4D5, I846V); assay: as above
T3 construct: expressed in transfected cells; host or cells: HEK293T
Procedure: Murine TRPM8 was used in this study. Point mutations were made by Fast Mutagenesis Kit V2 (SBS Genetech). Primers used to generate point mutations are summarized in Supplementary Table 2. All mutations were confirmed by sequencing.
as §2, §3, §4
Data from whole-cell recordings were analyzed in Igor Pro version 6.1 (WaveMatrix). EC50 values were derived from fitting a Hill equation to the concentration–response relationship. Changes in EC50 by point mutation may be caused by either perturbation of ligand bind or channel gating or both. To distinguish these possibilities, dissociation constant (Kd) for ligand binding was estimated assuming the following gating scheme:1 C0↔KdC1↔LO, where L is the equilibrium constant for the final closed-to-open transition.
as §6

TRPM8 Y745H = target: T4, TRPM8 Y745H (Mus musculus, UniProt Q8R4D5, Y745H); assay: whole-cell patch-clamp recording of menthol activation; settings: Y745H mutation
T4 construct: expressed in transfected cells; host or cells: HEK293T
Procedure: as §1, §2
as §3, with “Membrane potential was clamped at +80 mV for single-channel recordings. Current was sampled at 10 kHz and filtered at 2.9 kHz. All recordings were performed at room temperature (22 °C) with the maximum variation of 1 °C.” left out

wild-type TRPM8 = target: T5, wild-type TRPM8 (Mus musculus, UniProt Q8R4D5); assay: whole-cell patch-clamp recording of ligand activation
T5 construct: expressed in transfected cells; host or cells: HEK293T
Procedure: as §1
Cells were transiently transfected with cDNA constructs by Lipofectamine 3000 (Life Technologies) following the manufacturer’s protocol. Patch-clamp recordings were performed 1–2 days after transfection.
as §3, §4, §5

TRPM8 = target: T6, TRPM8 (Mus musculus, UniProt Q8R4D5); assay: whole-cell patch-clamp recording in response to a voltage ramp; settings: beyond −200 mV; near saturating menthol (0.5 mM)
T6 construct: expressed in transfected cells; host or cells: HEK293T
Description: Supplementary Figure 8. Deep hyperpolarization antagonized me nthol activation of TRPM8 but not capsaicin activation of TRPV1. ( a) Representative whole-cell patch- clamp recording of menthol activation of TRPM8 in response to a voltage ramp. In the hyperpolarized voltage range, TRPM8 current increased first and then decreased […]
mM menthol. (b) Representative whole- cell patch- clamp recording of capsaicin activation of TRPV1 in response to a voltage ramp. In the hyperpolarized voltage range, TRPV1 current kept increasing linearly with the lowering of membrane potential, which […]
(1 picture or pasted object on this page, not shown here)

[1] = calculated from concentration–response curves, read-out: Kd, Ave

T3 sequence (Q8R4D5 whole entry I846V): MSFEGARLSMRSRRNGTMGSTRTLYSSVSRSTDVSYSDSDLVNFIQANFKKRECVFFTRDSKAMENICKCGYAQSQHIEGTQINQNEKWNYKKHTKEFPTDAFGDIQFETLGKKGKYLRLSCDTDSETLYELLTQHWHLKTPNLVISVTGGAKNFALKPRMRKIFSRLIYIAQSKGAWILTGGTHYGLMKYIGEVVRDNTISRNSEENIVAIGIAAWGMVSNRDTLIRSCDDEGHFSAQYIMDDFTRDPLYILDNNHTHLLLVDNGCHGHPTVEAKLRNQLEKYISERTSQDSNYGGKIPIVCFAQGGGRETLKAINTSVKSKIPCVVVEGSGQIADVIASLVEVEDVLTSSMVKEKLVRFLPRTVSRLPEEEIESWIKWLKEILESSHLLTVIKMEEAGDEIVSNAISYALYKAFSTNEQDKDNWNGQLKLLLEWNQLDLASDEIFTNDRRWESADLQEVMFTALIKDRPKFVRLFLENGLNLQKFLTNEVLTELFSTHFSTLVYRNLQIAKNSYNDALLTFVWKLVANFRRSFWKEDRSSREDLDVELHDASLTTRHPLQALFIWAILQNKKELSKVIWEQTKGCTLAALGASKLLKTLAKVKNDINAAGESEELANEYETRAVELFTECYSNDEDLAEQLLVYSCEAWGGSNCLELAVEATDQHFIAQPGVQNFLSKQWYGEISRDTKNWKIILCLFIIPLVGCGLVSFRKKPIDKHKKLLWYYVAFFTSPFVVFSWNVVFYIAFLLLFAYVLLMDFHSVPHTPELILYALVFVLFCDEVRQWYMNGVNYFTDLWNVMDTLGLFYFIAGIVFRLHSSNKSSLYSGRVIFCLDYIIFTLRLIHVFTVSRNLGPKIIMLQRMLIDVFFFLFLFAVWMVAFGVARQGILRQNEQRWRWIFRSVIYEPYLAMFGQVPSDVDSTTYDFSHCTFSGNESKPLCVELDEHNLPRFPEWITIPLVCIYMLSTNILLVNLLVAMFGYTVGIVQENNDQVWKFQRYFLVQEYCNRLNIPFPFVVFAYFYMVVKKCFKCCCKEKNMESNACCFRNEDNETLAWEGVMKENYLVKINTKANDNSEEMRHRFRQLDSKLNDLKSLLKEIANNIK
T1 sequence (Q8R4D5 whole entry R842K): as the sequence (Q8R4D5 whole entry I846V) above, with R842K, V846I counted along it
T5 sequence (Q8R4D5 whole entry): as the sequence (Q8R4D5 whole entry I846V) above, with V846I counted along it
T4 sequence (Q8R4D5 whole entry Y745H): as the sequence (Q8R4D5 whole entry I846V) above, with Y745H, V846I counted along it
T6 sequence (Q8R4D5 whole entry): as the sequence (Q8R4D5 whole entry I846V) above, with V846I counted along it
T2 sequence (Q8R4D5 whole entry Y1005F): as the sequence (Q8R4D5 whole entry I846V) above, with V846I, Y1005F counted along it

## CC(C)[C@@H]1CC[C@@H](C)C[C@H]1O [menthol, (−)-menthol]
TRPM8 R842K
  L (equilibrium constant between closed and open states upon ligand binding), Ave: 18.3882
  L, single recording: 24.6476 and 13.2288 and 17.2882
TRPM8 R842K; 20 microM
  concentration–response curve value, ave: 0.01439
TRPM8 R842K; 100 microM
  concentration–response curve value, ave: 0.2373
  concentration–response curve value, single recording: 0.2375 and 0.1865 and 0.1541 and 0.2977 and 0.2927 and 0.2 and 0.2925
TRPM8 R842K; 500 microM
  concentration–response curve value, ave: 0.6774
  concentration–response curve value, single recording: 0.6802 and 0.7221 and 0.591 and 0.6718 and 0.7751 and 0.601 and 0.7009
TRPM8 R842K; 1000 microM
  concentration–response curve value, ave: 0.8246
  concentration–response curve value, single recording: 0.892 and 0.8781 and 0.8012 and 0.8485 and 0.8182 and 0.7917 and 0.7425
TRPM8 R842K; 2000 microM
  concentration–response curve value, ave: 0.8146
  concentration–response curve value, single recording: 0.9219 and 0.8808 and 0.8026 and 0.7789 and 0.777 and 0.8121 and 0.7292
TRPM8 R842K; [1]
  Kd: 8710 µM
TRPM8 R842K; read-out: Kd, single recording
  Kd: 8480 µM and 6830 µM and 10800 µM
TRPM8 Y1005F
  EC50: 498 ± 8.7 µM
TRPM8 I846V
  L (equilibrium constant between closed and open states upon ligand binding), Ave: 5.981
TRPM8 I846V; 1 microM
  concentration–response curve value, ave: 0.07755
TRPM8 I846V; 20 microM
  concentration–response curve value, ave: 0.2593
TRPM8 I846V; 100 microM
  concentration–response curve value, ave: 0.6986
TRPM8 I846V; 500 microM
  concentration–response curve value, ave: 0.7722
TRPM8 I846V; 2000 microM
  concentration–response curve value, ave: 0.7707
  concentration–response curve value, single recording: 0.8798 and 0.8106 and 0.8028 and 0.882 and 0.5707 and 0.6784
TRPM8 I846V; [1]
  Kd: 120 µM
TRPM8 I846V; read-out: Kd, single recording
  Kd: 88.3 µM and 109 µM and 97.6 µM and 116 µM and 189 µM
TRPM8 Y745H
  Menthol activation: barely activated; also recorded: virtually abolished
wild-type TRPM8; WT
  L (equilibrium constant between closed and open states upon ligand binding), Ave: 4.672 and 4.642
wild-type TRPM8; WT, 1 microM
  concentration–response curve value, ave: 0.025 and 0.02453
  concentration–response curve value, single recording: 0.025 and 0.02453
wild-type TRPM8; WT, 10 microM
  concentration–response curve value, ave: 0.025 and 0.0249
  concentration–response curve value, single recording: 0.021 and 0.029 and 0.02072 and 0.02909
wild-type TRPM8; WT, 20 microM
  concentration–response curve value, ave: 0.043
wild-type TRPM8; WT, 30 microM
  concentration–response curve value, ave: 0.090 and 0.08976
wild-type TRPM8; WT, 100 microM
  concentration–response curve value, ave: 0.426 and 0.4264
  concentration–response curve value, single recording: 0.426 and 0.453 and 0.400 and 0.4256 and 0.4532 and 0.4003
wild-type TRPM8; WT, 500 microM
  concentration–response curve value, ave: 0.760 and 0.7604
  concentration–response curve value, single recording: 0.796 and 0.730 and 0.755 and 0.7302 and 0.7548
wild-type TRPM8; WT, 1000 microM
  concentration–response curve value, ave: 0.801 and 0.8014
  concentration–response curve value, single recording: 0.847 and 0.769 and 0.788 and 0.8469 and 0.7692 and 0.7882
wild-type TRPM8; WT, calculated from concentration–response curves (EC50 and Po max), read-out: Kd, Ave
  Kd: 966 µM
wild-type TRPM8; wild-type TRPM8
  Hill coefficient: 1.74 ± 0.06
TRPM8
  effect of deep hyperpolarization on ligand-activated channel: decreased towards zero; also recorded: closed the channel
